Assay [1] addresses Bromodomain-containing protein 4 (Homo sapiens, UniProt O60885, Y390A). As to the kind of experiment: Displacement of Alexa Fluor 647-labeled ligand from BRD4 BD1 Y390A mutant (1 to 477 residue) (unknown origin) measured after 30 mins by TR-FRET assay. On the technique in general: TR-FRET usually uses a lanthanide donor and a delayed reading to cut background.
Assay [2] addresses T1, ATPase family AAA domain-containing protein 2 (Homo sapiens, UniProt Q6PL18).
T1 sequence (Q6PL18 whole entry): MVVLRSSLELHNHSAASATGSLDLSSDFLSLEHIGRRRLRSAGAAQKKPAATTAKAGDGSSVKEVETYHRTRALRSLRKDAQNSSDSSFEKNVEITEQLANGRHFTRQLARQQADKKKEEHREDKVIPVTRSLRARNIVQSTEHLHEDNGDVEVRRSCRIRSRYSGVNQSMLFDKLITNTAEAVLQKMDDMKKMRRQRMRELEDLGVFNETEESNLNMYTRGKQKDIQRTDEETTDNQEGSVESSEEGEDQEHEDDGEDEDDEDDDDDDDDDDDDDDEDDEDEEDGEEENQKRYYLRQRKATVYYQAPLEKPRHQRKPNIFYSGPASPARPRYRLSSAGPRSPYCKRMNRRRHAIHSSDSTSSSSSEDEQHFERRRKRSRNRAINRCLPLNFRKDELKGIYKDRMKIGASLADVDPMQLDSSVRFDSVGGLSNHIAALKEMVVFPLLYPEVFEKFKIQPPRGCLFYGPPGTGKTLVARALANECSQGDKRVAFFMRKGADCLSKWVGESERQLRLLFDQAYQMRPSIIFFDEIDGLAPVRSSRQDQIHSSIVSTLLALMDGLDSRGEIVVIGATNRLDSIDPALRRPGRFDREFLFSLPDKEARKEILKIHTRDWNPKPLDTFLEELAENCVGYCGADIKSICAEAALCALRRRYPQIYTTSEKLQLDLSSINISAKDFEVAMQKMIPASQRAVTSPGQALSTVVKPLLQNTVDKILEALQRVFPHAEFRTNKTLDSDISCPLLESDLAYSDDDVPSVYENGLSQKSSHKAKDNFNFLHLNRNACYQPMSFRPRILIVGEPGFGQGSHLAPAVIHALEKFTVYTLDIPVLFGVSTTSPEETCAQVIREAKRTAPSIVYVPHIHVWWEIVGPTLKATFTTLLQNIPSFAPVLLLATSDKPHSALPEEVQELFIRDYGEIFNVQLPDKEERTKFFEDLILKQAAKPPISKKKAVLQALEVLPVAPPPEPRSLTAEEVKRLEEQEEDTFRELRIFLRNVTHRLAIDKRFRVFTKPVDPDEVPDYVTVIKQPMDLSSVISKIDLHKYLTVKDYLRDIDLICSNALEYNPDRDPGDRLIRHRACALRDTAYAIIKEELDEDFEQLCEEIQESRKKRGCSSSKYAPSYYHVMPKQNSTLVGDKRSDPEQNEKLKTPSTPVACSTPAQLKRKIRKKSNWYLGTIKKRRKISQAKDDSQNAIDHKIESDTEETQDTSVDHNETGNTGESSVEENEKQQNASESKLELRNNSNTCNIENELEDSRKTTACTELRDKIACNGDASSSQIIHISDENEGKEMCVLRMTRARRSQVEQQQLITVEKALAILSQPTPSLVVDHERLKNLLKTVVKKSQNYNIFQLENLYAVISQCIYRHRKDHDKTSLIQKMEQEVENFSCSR
Put plainly: Binding affinity to human partial length ATAD2A (Q981 to R1108 residues) expressed in bacterial expression system by BROMOscan assay.

Assay [3] deals with T2, Bromodomain and PHD finger-containing protein 3 (Homo sapiens, UniProt Q9ULD4).
T2 sequence (Q9ULD4 whole entry): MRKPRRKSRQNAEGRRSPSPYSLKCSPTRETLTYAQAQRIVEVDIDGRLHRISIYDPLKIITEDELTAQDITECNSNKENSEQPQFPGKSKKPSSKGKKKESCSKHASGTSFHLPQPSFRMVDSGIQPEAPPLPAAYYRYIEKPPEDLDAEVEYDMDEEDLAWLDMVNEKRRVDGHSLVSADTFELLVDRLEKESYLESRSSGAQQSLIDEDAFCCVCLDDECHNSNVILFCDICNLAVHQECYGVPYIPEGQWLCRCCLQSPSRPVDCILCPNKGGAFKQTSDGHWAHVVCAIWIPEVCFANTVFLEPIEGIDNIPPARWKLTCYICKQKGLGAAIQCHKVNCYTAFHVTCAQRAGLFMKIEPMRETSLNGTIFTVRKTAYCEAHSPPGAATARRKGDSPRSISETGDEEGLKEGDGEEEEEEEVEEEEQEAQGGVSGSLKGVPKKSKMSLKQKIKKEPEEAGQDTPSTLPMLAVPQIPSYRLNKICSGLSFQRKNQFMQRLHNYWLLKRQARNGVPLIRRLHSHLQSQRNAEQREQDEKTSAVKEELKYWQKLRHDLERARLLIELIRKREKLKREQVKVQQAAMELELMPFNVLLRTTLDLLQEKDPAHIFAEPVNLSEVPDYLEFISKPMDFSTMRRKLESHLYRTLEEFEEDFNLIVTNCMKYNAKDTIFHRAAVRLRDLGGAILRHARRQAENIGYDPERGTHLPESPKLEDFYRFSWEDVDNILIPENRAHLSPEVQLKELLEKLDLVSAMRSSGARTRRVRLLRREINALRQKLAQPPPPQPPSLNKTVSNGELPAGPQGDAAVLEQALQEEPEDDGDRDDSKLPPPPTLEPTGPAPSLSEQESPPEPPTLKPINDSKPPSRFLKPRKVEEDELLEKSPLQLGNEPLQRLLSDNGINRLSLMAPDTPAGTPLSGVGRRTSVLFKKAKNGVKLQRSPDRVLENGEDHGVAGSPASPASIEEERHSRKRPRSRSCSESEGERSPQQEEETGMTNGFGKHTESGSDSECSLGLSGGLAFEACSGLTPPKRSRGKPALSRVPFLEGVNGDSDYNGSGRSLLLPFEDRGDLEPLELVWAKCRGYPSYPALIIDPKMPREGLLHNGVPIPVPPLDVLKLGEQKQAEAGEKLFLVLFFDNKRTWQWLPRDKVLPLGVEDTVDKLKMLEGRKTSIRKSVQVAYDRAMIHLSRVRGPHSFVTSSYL
As to the kind of experiment: Binding affinity to human partial length BRPF3 (E588 to G701 residues) expressed in bacterial expression system by BROMOscan assay.

As usually defined, the IC50 is the concentration at which inhibition is half-maximal. For orientation: Kd means the free concentration of one partner at which half of the binding sites on the other are occupied at equilibrium, for simple one-to-one binding. `C[C@H]1CCN(S(=O)(=O)c2cc(NC(=O)CN3C(=O)N[C@@](C)(C4CC4)C3=O)ccc2Br)C1` had an IC50 in assay [1] of more than 50.1 µM. The Kd is 0.01 µM in assay [2] and 0.126 µM in assay [3].
